Measured values as given in patent US20250145633A1, “SUBSTITUTED FURANOPYRIMIDINE COMPOUNDS AS PDE1 INHIBITORS” (Dart NeuroScience, LLC, priority 2017, published 2025).

Target: human PDE1B enzyme (Homo sapiens (Human), UniProt Q01064)
Experiment: IMAP TR-FRET PDE1B enzymatic assay
Assay type: biochemical
Conditions: negative log of half-maximal molar inhibitory concentration, 200 nM FAM-cAMP, values given as bins; for IC50: read-out: PDE1b (pIC50) (converted)
Outline: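 Full-length GST-tagged human PDE1B (250 pg/well) in IMAP BSA buffer with 10 U/ml calmodulin and 2.5 mM CaCl2; compound pre-incubated 5 min at room temperature, then 200 nM (final) FAM-cAMP for 30 min. IMAP binding reagent/Tb added, 1 h; TR-FRET 520/490 ratio read. IC50 from sigmoidal dose-response fit.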

## Cc1oc2ncnc(NC3(C)CC3)c2c1C(N)=O [Example 761, 6-Methyl-4-[(1-methylcyclopropyl)amino]furo[2,3-d]pyrimidin-5-carboxamide]
  IC50: 100 to 1000 nM

## Cc1oc2ncnc(NC3(C)CC3)c2c1C(=O)N1CCc2c(ncnc2NC(C)C)C1 [Example 762, 6-Methyl-N-(1-methylcyclopropyl)-5-f{4-[(propan-2-yl)amino]-5H,6H,7H,8H-pyrido[3,4-d]pyrimidine-7-carbonyl}furo[2,3-d]pyrimidin-4-amine]
  PDE1b (pIC50): >8

## Cc1oc2ncnc(NC3(C)CC3)c2c1C(=O)N1CCc2c(OCF)ccnc2C1 [Example 763, 5-[4-(Fluoromethoxy)-5,6,7,8-tetrahydro-1,7-naphthyridine-7-carbonyl]-6-methyl-N-(1-methylcyclopropyl)furo[2,3-d]pyrimidin-4-amine]
  PDE1b (pIC50): >8

## Cc1oc2ncnc(NC3(C)CC3)c2c1C(=O)N1CCc2c(cccc2OCF)C1 [Example 764, 5-[5-(Fluoromethoxy)-1,2,3,4-tetrahydroisoquinoline-2-carbonyl]-6-methyl-N-(1-methylcyclopropyl)furo[2,3-d]pyrimidin-4-amine]
  PDE1b (pIC50): >8

## Cc1oc2ncnc(NC3(C)CC3)c2c1C(=O)N1CCc2cc(OCF)ccc2C1 [Example 765, 5-[6-(Fluoromethoxy)-1,2,3,4-tetrahydroisoquinoline-2-carbonyl]-6-methyl-N-(1-methylcyclopropyl)furo[2,3-d]pyrimidin-4-amine]
  PDE1b (pIC50): >8

## Cc1oc2ncnc(NC3(C)CC3)c2c1C(=O)N1CCc2cccc(OCF)c2C1 [Example 766, 5-[8-(Fluoromethoxy)-1,2,3,4-tetrahydroisoquinoline-2-carbonyl]-6-methyl-N-(1-methylcyclopropyl)furo[2,3-d]pyrimidin-4-amine]
  IC50: 10 to 100 nM

## Cc1oc2ncnc(NC3(C)CC3)c2c1C(=O)N1CCc2ccc(OCF)cc2C1 [Example 767, 5-[7-(Fluoromethoxy)-1,2,3,4-tetrahydroisoquinoline-2-carbonyl]-6-methyl-N-(1-methylcyclopropyl)furo[2,3-d]pyrimidin-4-amine]
  IC50: 10 to 100 nM

## Cc1oc2ncnc(NC3(C)CC3)c2c1C(=O)N1CCc2ncc(OCF)cc2C1 [Example 768, 5-[3-(Fluoromethoxy)-5,6,7,8-tetrahydro-1,6-naphthyridine-6-carbonyl]-6-methyl-N-(1-methylcyclopropyl)furo[2,3-d]pyrimidin-4-amine]
  IC50: 10 to 100 nM

## Cc1oc2ncnc(NC3(C)CC3)c2c1C(=O)N1CCc2c(ccnc2OCF)C1 [Example 769, 5-[5-(Fluoromethoxy)-1,2,3,4-tetrahydro-2,6-naphthyridine-2-carbonyl]-6-methyl-N-(1-methylcyclopropyl)furo[2,3-d]pyrimidin-4-amine]
  IC50: 10 to 100 nM

## Cc1oc2ncnc(NC3(C)CC3)c2c1C(=O)N1CCC(c2ncc(OCF)cn2)CC1 [Example 770, 5-{4-[5-(Fluoromethoxy)pyrimidin-2-yl]piperidine-1-carbonyl}-6-methyl-N-(1-methylcyclopropyl)furo[2,3-d]pyrimidin-4-amine]
  IC50: 10 to 100 nM

## Cc1oc2ncnc(NC3(C)CC3)c2c1C(=O)N1CCC(c2ccc(OCF)cc2)C1 (stereo not shown) [Example 771, 5-{3-[4-(Fluoromethoxy)phenyl]pyrrolidine-1-carbonyl}-6-methyl-N-(1-methylcyclopropyl)furo[2,3-d]pyrimidin-4-amine]
  IC50: 10 to 100 nM

## Cc1oc2ncnc(NC3(C)CC3)c2c1C(=O)N1CCc2ccc(OCF)cc2C1C (stereo not shown) [Example 772, 5-[7-(Fluoromethoxy)-1-methyl-1,2,3,4-tetrahydroisoquinoline-2-carbonyl]-6-methyl-N-(1-methylcyclopropyl)furo[2,3-d]pyrimidin-4-amine]
  PDE1b (pIC50): >8

## COCc1nc2c(c(OCF)n1)CCN(C(=O)c1c(C)oc3ncnc(NC4(C)CC4)c13)C2 [Example 773, 5-[4-(Fluoromethoxy)-2-(methoxymethyl)-5H,6H,7H,8H-pyrido[3,4-d]pyrimidine-7-carbonyl]-6-methyl-N-(1-methylcyclopropyl)furo[2,3-d]pyrimidin-4-amine]
  IC50: 10 to 100 nM

## Cc1oc2ncnc(NC3(C)CC3)c2c1C(=O)N1CC=C(c2ncc(F)cn2)C1 [Example 774, 5-[3-(5-Fluoropyrimidin-2-yl)-2,5-dihydro-1H-pyrrole-1-carbonyl]-6-methyl-N-(1-methylcyclopropyl)furo[2,3-d]pyrimidin-4-amine]
  IC50: 10 to 100 nM

## Cc1oc2ncnc(NC3(C)CC3)c2c1C(=O)N1CC=C(c2nccc(C#N)n2)CC1 [Example 775, 2-(1-{6-Methyl-4-[(1-methylcyclopropyl)amino]furo[2,3-d]pyrimidine-5-carbonyl}-1,2,3,6-tetrahydropyridin-4-yl)pyrimidine-4-carbonitrile]
  PDE1b (pIC50): >8

## Cc1oc2ncnc(NC3(C)CC3)c2c1C(=O)N1CCC(c2ccn(C)n2)CC1 [Example 776, 6-Methyl-5-[4-(1-methyl-1H-pyrazol-3-yl)piperidine-1-carbonyl]-N-(1-methylcyclopropyl)furo[2,3-d]pyrimidin-4-amine]
  PDE1b (pIC50): >8

## Cc1oc2ncnc(NC3(C)CC3)c2c1C(=O)N1CCC(c2ncn(C)n2)CC1 [Example 777, 6-Methyl-5-[4-(1-methyl-1H-1,2,4-triazol-3-yl)piperidine-1-carbonyl]-N-(1-methylcyclopropyl)furo[2,3-d]pyrimidin-4-amine]
  IC50: 10 to 100 nM

## Cc1oc2ncnc(NC3(C)CC3)c2c1C(=O)N1CCC(c2cn(C)nn2)CC1 [Example 778, 6-Methyl-5-[4-(1-methyl-1H-1,2,3-triazol-4-yl)piperidine-1-carbonyl]-N-(1-methylcyclopropyl)furo[2,3-d]pyrimidin-4-amine]
  IC50: 10 to 100 nM

## Cc1oc2ncnc(NC3(C)CC3)c2c1C(=O)N1CCC(c2cc(C)n(C)n2)CC1 [Example 779, 5-[4-(1,5-Dimethyl-1H-pyrazol-3-yl)piperidine-1-carbonyl]-6-methyl-N-(1-methylcyclopropyl)furo[2,3-d]pyrimidin-4-amine]
  PDE1b (pIC50): >8

## Cc1nc(C)c(C2CCN(C(=O)c3c(C)oc4ncnc(NC5(C)CC5)c34)CC2)[nH]1 [Example 780, 5-[4-(2,4-Dimethyl-1H-imidazol-5-yl)piperidine-1-carbonyl]-6-methyl-N-(1-methylcyclopropyl)furo[2,3-d]pyrimidin-4-amine]
  IC50: 100 to 1000 nM

## Cc1oc2ncnc(NC3(C)CC3)c2c1C(=O)N1CCC(c2ccn(C(C)C)n2)CC1 [Example 781, 6-Methyl-N-(1-methylcyclopropyl)-5-{4-[1-(propan-2-yl)-1H-pyrazol-3-yl]piperidine-1-carbonyl}furo[2,3-d]pyrimidin-4-amine]
  IC50: 10 to 100 nM

## Cc1oc2ncnc(NC3(C)CC3)c2c1C(=O)N1CCC(c2cnn(C)c2)CC1 [Example 782, 6-Methyl-5-[4-(1-methyl-1H-pyrazol-4-yl)piperidine-1-carbonyl]-N-(1-methylcyclopropyl)furo[2,3-d]pyrimidin-4-amine]
  IC50: 10 to 100 nM

## Cc1oc2ncnc(NC3(C)CC3)c2c1C(=O)N1CC=C(c2cnc(F)s2)CC1 [Example 783, 5-[4-(2-Fluoro-1,3-thiazol-5-yl)-1,2,3,6-tetrahydropyridine-1-carbonyl]-6-methyl-N-(1-methylcyclopropyl)furo[2,3-d]pyrimidin-4-amine]
  PDE1b (pIC50): >8

## COc1cnc(C2=CCN(C(=O)c3c(C)oc4ncnc(NC5(C)CC5)c34)CC2)cn1 [Example 784, 5-[4-(5-Methoxypyrazin-2-yl)-1,2,3,6-tetrahydropyridine-1-carbonyl]-6-methyl-N-(1-methylcyclopropyl)furo[2,3-d]pyrimidin-4-amine]
  PDE1b (pIC50): >8

## COc1ccc(C2=CCN(C(=O)c3c(C)oc4ncnc(NC5(C)CC5)c34)CC2)nc1 [Example 785, 5-[4-(5-Methoxypyridin-2-yl)-1,2,3,6-tetrahydropyridine-1-carbonyl]-6-methyl-N-(1-methylcyclopropyl)furo[2,3-d]pyrimidin-4-amine]
  PDE1b (pIC50): >8

## Cc1oc2ncnc(NC3(C)CC3)c2c1C(=O)N1CCc2c(ncnc2N2CC[C@H](F)C2)C1 [Example 786, 5-{4-[(3S)-3-Fluoropyrrolidin-1-yl]-5H,6H,7H,8H-pyrido[3,4-d]pyrimidine-7-carbonyl}-6-methyl-N-(1-methylcyclopropyl)furo[2,3-d]pyrimidin-4-amine]
  IC50: 10 to 100 nM

## Cc1oc2ncnc(NC3(C)CC3)c2c1C(=O)N1CCc2c(ncnc2N2CCOCC2)C1 [Example 787, 6-Methyl-N-(1-methylcyclopropyl)-5-[4-(morpholin-4-yl)-5H,6H,7H,8H-pyrido[3,4-d]pyrimidine-7-carbonyl]furo[2,3-d]pyrimidin-4-amine]
  IC50: 10 to 100 nM

## Cc1oc2ncnc(NC3(C)CC3)c2c1C(=O)N1CCc2c(ncnc2N2CC(F)C2)C1 [Example 788, 5-[4-(3-Fluoroazetidin-1-yl)-5H,6H,7H,8H-pyrido[3,4-d]pyrimidine-7-carbonyl]-6-methyl-N-(1-methylcyclopropyl)furo[2,3-d]pyrimidin-4-amine]
  IC50: 10 to 100 nM

## Cc1oc2ncnc(NC3(C)CC3)c2c1C(=O)N1CCc2c(nc(Cl)nc2NC(C)C)C1 [Example 789, 5-{2-Chloro-4-[(propan-2-yl)amino]-5H,6H,7H,8H-pyrido[3,4-d]pyrimidine-7-carbonyl}-6-methyl-N-(1-methylcyclopropyl)furo[2,3-d]pyrimidin-4-amine]
  PDE1b (pIC50): >8

## Cc1oc2ncnc(NC3(C)CC3)c2c1C(=O)N1CCc2c(ncnc2N(C)C2CC2)C1 [Example 790, 5-{4-[Cyclopropyl(methyl)amino]-5H,6H,7H,8H-pyrido[3,4-d]pyrimidine-7-carbonyl}-6-methyl-N-(1-methylcyclopropyl)furo[2,3-d]pyrimidin-4-amine]
  IC50: 10 to 100 nM

## Cc1oc2ncnc(NC3(C)CC3)c2c1C(=O)N1CCc2c(ncnc2N(C)C)C1 [Example 791, 5-[4-(Dimethylamino)-5H,6H,7H,8H-pyrido[3,4-d]pyrimidine-7-carbonyl]-6-methyl-N-(1-methylcyclopropyl)furo[2,3-d]pyrimidin-4-amine]
  IC50: 10 to 100 nM
